Data as given in patent US20250214991A1 (Oncopia Therapeutics, Inc. d/b/a/ SK Life Science Labs, priority 2022, published 2025).

Key:
CRBN/DDB1 = CRBN/DDB1 (Homo sapiens (Human), UniProt Q96SW2); assay: IC50 measurements for binding to CRBN/DDB1 (HTRF); conditions: His tagged CRBN+DDB, Cy5-labeled Thalidomide probe, one hour
Outline: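 HTRF competition binding with 2 nM His-tagged CRBN-DDB1 complex, 60 nM Cy5-thalidomide probe and 0.4 nM anti-His Tb cryptate in 50 mM HEPES pH 7.5, 1 mM TCEP, 0.01% Brij-35, 50 mM NaCl, 0.1% BSA. Read after 1 h at room temperature; IC50 from four-parameter dose-response fit.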

IKZF2 = IKZF2 (Homo sapiens (Human), UniProt Q96SW2+Q9UKS7); assay: In vitro IKZF2 HiBit Assay (HEK293T Flp-in-HiBiT cells); assay type: cell-based; conditions: HEK293T Flp-in-HiBiT cells, 6 hrs incubation; for DC50: read-out: IKZF2 HiBit DC50; for Dmax: HEK-293T, read-out: IKZF2 HiBit Dmax (%)
IKZF2, sequence (Q9UKS7 whole entry): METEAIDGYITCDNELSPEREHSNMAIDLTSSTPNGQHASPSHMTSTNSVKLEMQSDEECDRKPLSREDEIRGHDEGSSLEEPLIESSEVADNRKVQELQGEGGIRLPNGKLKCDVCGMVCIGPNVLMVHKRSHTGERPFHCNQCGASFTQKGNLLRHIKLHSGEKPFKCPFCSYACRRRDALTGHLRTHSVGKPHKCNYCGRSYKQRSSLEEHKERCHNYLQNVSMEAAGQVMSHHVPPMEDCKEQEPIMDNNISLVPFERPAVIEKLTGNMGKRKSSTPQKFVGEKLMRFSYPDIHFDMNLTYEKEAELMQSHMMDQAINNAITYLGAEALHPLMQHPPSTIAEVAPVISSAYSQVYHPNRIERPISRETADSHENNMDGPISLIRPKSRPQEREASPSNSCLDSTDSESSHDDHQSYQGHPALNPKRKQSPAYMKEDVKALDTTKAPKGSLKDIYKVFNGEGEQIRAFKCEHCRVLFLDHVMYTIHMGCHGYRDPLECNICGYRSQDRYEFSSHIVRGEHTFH
IKZF2, sequence (Q96SW2 whole entry): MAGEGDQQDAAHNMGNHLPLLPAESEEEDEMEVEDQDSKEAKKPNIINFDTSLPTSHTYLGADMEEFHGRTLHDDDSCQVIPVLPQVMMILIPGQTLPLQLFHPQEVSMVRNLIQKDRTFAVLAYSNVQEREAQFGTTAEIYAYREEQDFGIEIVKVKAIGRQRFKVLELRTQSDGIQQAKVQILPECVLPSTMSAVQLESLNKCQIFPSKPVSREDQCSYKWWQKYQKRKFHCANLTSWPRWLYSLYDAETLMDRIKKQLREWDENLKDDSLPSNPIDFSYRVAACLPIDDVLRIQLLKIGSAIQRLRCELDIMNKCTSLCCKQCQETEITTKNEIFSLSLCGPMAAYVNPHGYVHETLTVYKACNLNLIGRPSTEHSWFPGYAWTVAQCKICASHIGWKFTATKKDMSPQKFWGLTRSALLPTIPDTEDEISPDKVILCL
IKZF2, sequence (Q16531 2-1140 partner): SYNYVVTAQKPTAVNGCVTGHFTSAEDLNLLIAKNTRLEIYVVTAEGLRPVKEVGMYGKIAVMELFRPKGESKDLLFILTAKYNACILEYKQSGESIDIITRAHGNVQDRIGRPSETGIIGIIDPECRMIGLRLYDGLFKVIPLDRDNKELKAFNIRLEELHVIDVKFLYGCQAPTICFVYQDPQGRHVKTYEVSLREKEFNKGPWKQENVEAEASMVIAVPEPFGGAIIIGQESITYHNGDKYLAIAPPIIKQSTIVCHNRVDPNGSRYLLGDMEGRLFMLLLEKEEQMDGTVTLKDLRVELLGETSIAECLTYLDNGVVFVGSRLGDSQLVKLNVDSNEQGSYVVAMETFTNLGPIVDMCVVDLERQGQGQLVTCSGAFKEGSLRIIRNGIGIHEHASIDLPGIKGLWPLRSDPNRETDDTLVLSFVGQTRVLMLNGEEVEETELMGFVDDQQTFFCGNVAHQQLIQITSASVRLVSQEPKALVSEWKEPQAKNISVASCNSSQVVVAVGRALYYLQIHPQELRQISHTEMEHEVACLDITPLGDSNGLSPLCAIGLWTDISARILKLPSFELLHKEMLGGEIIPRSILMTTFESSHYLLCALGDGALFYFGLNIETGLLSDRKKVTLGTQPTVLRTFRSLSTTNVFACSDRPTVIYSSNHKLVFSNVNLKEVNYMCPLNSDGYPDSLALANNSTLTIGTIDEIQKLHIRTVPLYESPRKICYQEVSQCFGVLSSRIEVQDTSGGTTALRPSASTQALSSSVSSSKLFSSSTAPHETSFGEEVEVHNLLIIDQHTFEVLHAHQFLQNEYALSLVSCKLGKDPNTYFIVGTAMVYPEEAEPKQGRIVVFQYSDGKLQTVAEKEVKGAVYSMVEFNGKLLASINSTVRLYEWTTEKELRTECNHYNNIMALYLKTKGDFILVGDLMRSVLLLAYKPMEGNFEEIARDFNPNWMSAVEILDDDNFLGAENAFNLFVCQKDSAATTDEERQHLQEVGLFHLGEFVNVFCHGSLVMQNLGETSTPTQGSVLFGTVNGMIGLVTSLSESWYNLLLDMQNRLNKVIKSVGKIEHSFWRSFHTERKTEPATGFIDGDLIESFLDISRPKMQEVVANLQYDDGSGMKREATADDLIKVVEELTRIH
Outline: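 HEK293T Flp-in cells carrying an endogenous N-terminal HiBiT tag on IKZF2 were exposed to compound for 6 h at 0.1% DMSO. The dilution series was 11 doses at 3-fold, diluted from 1 mM. Nano-Glo HiBiT lytic luminescence, normalized to DMSO, gave DC50 for 50% degradation and Dmax across the concentration range, both reported in letter bins.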

IKZF1 = IKZF1 (Homo sapiens (Human), UniProt Q13422+Q96SW2); assay: In vitro IKZF1 HiBit Assay (HEK293T Flp-in-HiBiT-IKZF1 stable cell line); assay type: cell-based; conditions: HEK293T Flp-in-HiBiT-IKZF1 stable cell line, 6 hrs incubation; for DC50: read-out: IKZF1 HiBit DC50; for Dmax: HEK-293T, read-out: IKZF1 HiBit Dmax (%)
IKZF1, sequence (Q13422 whole entry): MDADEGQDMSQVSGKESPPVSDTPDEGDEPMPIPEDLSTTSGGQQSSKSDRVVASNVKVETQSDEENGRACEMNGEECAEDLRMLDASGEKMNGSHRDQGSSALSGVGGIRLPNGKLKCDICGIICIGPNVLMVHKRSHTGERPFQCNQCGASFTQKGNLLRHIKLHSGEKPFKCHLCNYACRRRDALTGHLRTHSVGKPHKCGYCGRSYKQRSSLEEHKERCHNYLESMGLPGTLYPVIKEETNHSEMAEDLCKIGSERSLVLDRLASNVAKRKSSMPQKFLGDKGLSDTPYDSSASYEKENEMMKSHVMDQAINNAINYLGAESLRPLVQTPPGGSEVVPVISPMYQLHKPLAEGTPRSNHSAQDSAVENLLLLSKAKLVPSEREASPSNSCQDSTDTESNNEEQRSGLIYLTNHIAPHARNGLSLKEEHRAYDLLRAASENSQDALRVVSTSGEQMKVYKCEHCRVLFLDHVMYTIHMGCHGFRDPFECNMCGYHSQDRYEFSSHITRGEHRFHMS
IKZF1, sequence (Q96SW2 whole entry): as the sequence (Q96SW2 whole entry) above
IKZF1, sequence (Q16531 2-1140 partner): as the sequence (Q16531 2-1140 partner) above
Outline: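 HEK293T Flp-in cells carrying N-terminal HiBiT-tagged IKZF1 were exposed to compound (0.1% DMSO) for 6 h at 3000 cells/well. HiBiT luminescence was read after lytic LgBiT detection. DC50 and Dmax were taken from DMSO-normalized dose-response curves.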

CRBN/DDB1, sequence (Q96SW2 whole entry, species assumed): as the sequence (Q96SW2 whole entry) above
CRBN/DDB1, sequence (Q16531 whole entry partner, species assumed): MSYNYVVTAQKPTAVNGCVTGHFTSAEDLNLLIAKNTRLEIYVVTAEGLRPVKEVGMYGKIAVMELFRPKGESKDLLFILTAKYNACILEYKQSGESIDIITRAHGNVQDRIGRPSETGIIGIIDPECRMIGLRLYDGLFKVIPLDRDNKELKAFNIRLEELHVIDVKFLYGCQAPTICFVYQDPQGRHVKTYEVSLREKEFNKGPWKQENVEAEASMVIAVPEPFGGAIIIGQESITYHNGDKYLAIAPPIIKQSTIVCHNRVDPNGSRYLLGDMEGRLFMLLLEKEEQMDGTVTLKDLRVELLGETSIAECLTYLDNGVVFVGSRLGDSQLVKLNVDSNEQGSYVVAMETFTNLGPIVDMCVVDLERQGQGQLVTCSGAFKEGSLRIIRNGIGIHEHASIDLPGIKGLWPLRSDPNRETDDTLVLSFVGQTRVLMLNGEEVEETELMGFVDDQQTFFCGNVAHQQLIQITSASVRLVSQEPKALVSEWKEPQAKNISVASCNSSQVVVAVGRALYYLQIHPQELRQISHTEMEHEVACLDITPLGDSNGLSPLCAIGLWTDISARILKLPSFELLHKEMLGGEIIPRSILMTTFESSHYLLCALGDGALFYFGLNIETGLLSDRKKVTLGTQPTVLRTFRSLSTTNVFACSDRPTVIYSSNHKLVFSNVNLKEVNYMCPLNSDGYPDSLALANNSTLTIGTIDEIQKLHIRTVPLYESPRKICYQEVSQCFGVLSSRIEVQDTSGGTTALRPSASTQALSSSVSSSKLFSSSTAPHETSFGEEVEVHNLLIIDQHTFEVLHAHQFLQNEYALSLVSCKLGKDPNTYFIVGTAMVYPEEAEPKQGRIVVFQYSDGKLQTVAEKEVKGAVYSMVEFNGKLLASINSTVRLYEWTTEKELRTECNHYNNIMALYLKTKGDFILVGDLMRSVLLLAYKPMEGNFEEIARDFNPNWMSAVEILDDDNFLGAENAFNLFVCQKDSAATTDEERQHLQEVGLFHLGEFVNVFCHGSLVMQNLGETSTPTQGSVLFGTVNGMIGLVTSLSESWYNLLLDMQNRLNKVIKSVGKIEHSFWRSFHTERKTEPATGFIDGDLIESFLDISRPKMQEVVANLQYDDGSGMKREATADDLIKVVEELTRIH

SMILES | IC50 (CRBN/DDB1) [nM] | DC50 (IKZF2) [nM] | Dmax (IKZF2) [%] | DC50 (IKZF1) [nM] | Dmax (IKZF1) [%]
Cc1cc(-c2ccc3c(c2)CN(C2CCC(=O)NC2=O)C3=O)nc2nc(CN3CCCC3)oc12 (centres unmarked) [Example 195, 3-(5-(7-methyl-2-(pyrrolidin-1-ylmethyl)oxazolo[4,5-b]pyridin-5-yl)-1-oxoisoindolin-2-yl) piperidine-2,6-dione] | 1000 to 5000 | 10 to 100 | 60 to 80 | > 10000 | < 20
Cn1ccnc1N1CCN(Cc2cc(-c3ccc4c(c3)CN(C3CCC(=O)NC3=O)C4=O)nc3c2ccn3C)CC1 (centres unmarked) [Example 99, 3-(5-(1-methyl-4-((4-(1-methyl-1H-imidazol-2-yl)piperazin-1-yl)methyl)-1H-pyrrolo[2,3-b]pyridin-6-yl)-1-oxoisoindolin-2-yl) piperidine-2,6-dione] | 100 to 500 | 10 to 100 | 40 to 60 | > 10000 | < 20
Cn1ccc2c(CN3CC4CCC(C4)C3)cc(-c3ccc4c(c3)CN(C3CCC(=O)NC3=O)C4=O)nc21 (centres unmarked) [Example 308, 3-(5-(4-((3-azabicyclo[3.2.1]octan-3-yl)methyl)-1-methyl-1H-pyrrolo[2,3-b]pyridin-6-yl)-1-oxoisoindolin-2-yl) piperidine-2,6-dione] | 100 to 500 | 1 to 10 | > 80 | 1 to 10 | 20 to 40
Cn1ccc2c(CN3CC4CCCC4C3)cc(-c3ccc4c(c3)CN(C3CCC(=O)NC3=O)C4=O)nc21 (centres unmarked) [Example 72, 3-(5-(4-((hexahydrocyclopenta[c]pyrrol-2 (1H)-yl)methyl)-1-methyl-1H-pyrrolo[2,3-b]pyridin-6-yl)-1-oxoisoindolin-2-yl) piperidine-2,6-dione] | 100 to 500 | < 1 | > 80 | > 10000 | 40 to 60
Nc1n[nH]c2c(CN3CC4COCC4C3)cc(-c3ccc4c(c3)CN(C3CCC(=O)NC3=O)C4=O)nc12 (centres unmarked) [Example 214, 3-(5-(3-amino-7-((tetrahydro-1H-furo[3,4-c]pyrrol-5 (3H)-yl)methyl)-1H-pyrazolo[4,3-b]pyridin-5-yl)-1-oxoisoindolin-2-yl) piperidine-2,6-dione] | 100 to 500 | 100 to 1000 | 60 to 80 | > 10000 | < 20
O=C1CCC(N2Cc3cc(-c4cc(CN5CCCC5)c5c(n4)CCC5)ccc3C2=O)C(=O)N1 (centres unmarked) [Example 80, 3-(1-oxo-5-(4-(pyrrolidin-1-ylmethyl)-6,7-dihydro-5H-cyclopenta[b]pyridin-2-yl)isoindolin-2-yl) piperidine-2,6-dione] | 100 to 500 | < 1 | > 80 | – | 20 to 40
Cn1ccc2c(CN3CCC(C#N)CC3)cc(-c3ccc4c(c3)CN(C3CCC(=O)NC3=O)C4=O)nc21 (centres unmarked) [Example 309, 1-((6-(2-(2,6-dioxopiperidin-3-yl)-1-oxoisoindolin-5-yl)-1-methyl-1H-pyrrolo[2,3-b]pyridin-4-yl)methyl) piperidine-4-carbonitrile] | 1000 to 5000 | 1 to 10 | > 80 | 1000 to 10000 | 20 to 40
O=C1CCC(N2Cc3cc(-c4cc(CN5CCC(CO)CC5)c5ccn(C6CC6)c5n4)ccc3C2=O)C(=O)N1 (centres unmarked) [Example 144, 3-(5-(1-cyclopropyl-4-((4-(hydroxymethyl)piperidin-1-yl)methyl)-1H-pyrrolo[2,3-b]pyridin-6-yl)-1-oxoisoindolin-2-yl) piperidine-2,6-dione] | 100 to 500 | 1 to 10 | > 80 | 10 to 100 | 20 to 40
Cn1ccc2c(CN3CCCC3)cc(-c3cc4c(cc3Cl)C(=O)N(C3CCC(=O)NC3=O)C4)nc21 (centres unmarked) [Example 83, 3-(6-chloro-5-(1-methyl-4-(pyrrolidin-1-ylmethyl)-1H-pyrrolo[2,3-b]pyridin-6-yl)-1-oxoisoindolin-2-yl) piperidine-2,6-dione] | 1000 to 5000 | 1 to 10 | > 80 | > 10000 | < 20
Cc1cc(-c2ccc3c(c2)CN(C2CCC(=O)NC2=O)C3=O)nc2c1CCN2CCO (centres unmarked) [Example 132, 3-(5-(1-(2-hydroxyethyl)-4-methyl-2,3-dihydro-1H-pyrrolo[2,3-b]pyridin-6-yl)-1-oxoisoindolin-2-yl) piperidine-2,6-dione] | 5000 to 10000 | 10 to 100 | 40 to 60 | > 10000 | < 20
O=C1CCC(N2Cc3cc(-c4cc(CN5CCCC5)c5[nH]nc(C6CCC6)c5n4)ccc3C2=O)C(=O)N1 (centres unmarked) [Example 224, 3-(5-(3-cyclobutyl-7-(pyrrolidin-1-ylmethyl)-1H-pyrazolo[4,3-b]pyridin-5-yl)-1-oxoisoindolin-2-yl) piperidine-2,6-dione] | 1000 to 5000 | < 1 | 60 to 80 | 10 to 100 | 40 to 60
CC(C)Cn1ccc2c(CN3CCCC3)cc(-c3ccc4c(c3)CN(C3CCC(=O)NC3=O)C4=O)nc21 (centres unmarked) [Example 140, 3-(5-(1-isobutyl-4-(pyrrolidin-1-ylmethyl)-1H-pyrrolo[2,3-b]pyridin-6-yl)-1-oxoisoindolin-2-yl) piperidine-2,6-dione] | 100 to 500 | < 1 | 20 to 40 | > 10000 | < 20
O=C1CCC(N2Cc3cc(-c4cc(CN5CCC(F)C5)c5ccn(C6COC6)c5n4)ccc3C2=O)C(=O)N1 (centres unmarked) [Example 157, 3-(5-(4-((3-fluoropyrrolidin-1-yl)methyl)-1-(oxetan-3-yl)-1H-pyrrolo[2,3-b]pyridin-6-yl)-1-oxoisoindolin-2-yl) piperidine-2,6-dione] | 500 to 1000 | 1 to 10 | > 80 | > 10000 | < 20
O=C1CCC(N2Cc3cc(-c4cc(CN5CC(F)C5)c5ccn(C6CC6)c5n4)ccc3C2=O)C(=O)N1 (centres unmarked) [Example 143, 3-(5-(1-cyclopropyl-4-((3-fluoroazetidin-1-yl)methyl)-1H-pyrrolo[2,3-b]pyridin-6-yl)-1-oxoisoindolin-2-yl) piperidine-2,6-dione] | 1000 to 5000 | 1 to 10 | > 80 | > 10000 | < 20
Cn1ccc2c(CN3CCC(S(C)(=O)=O)CC3)cc(-c3ccc4c(c3)CN(C3CCC(=O)NC3=O)C4=O)nc21 (centres unmarked) [Example 300, 3-(5-(1-methyl-4-((4-(methylsulfonyl)piperidin-1-yl)methyl)-1H-pyrrolo[2,3-b]pyridin-6-yl)-1-oxoisoindolin-2-yl) piperidine-2,6-dione] | 1000 to 5000 | 10 to 100 | 60 to 80 | > 10000 | < 20
COCCn1ccc2c(CN3CCCC3)cc(-c3ccc4c(c3)CN(C3CCC(=O)NC3=O)C4=O)nc21 (centres unmarked) [Example 118, 3-(5-(1-(2-methoxyethyl)-4-(pyrrolidin-1-ylmethyl)-1H-pyrrolo[2,3-b]pyridin-6-yl)-1-oxoisoindolin-2-yl) piperidine-2,6-dione] | 500 to 1000 | 1 to 10 | 40 to 60 | > 10000 | < 20
CN(C)CC1CCN(Cc2cc(-c3ccc4c(c3)CN(C3CCC(=O)NC3=O)C4=O)nc3[nH]ccc23)C1 (centres unmarked) [Example 123] | 100 to 500 | 1 to 10 | > 80 | 10 to 100 | 20 to 40
O=C1CCC(N2Cc3cc(-c4cc(CN5CCC(CO)C5)c5ccn(C6CC6)c5n4)ccc3C2=O)C(=O)N1 (centres unmarked) [Example 155, 3-(5-(1-cyclopropyl-4-((3-(hydroxymethyl)pyrrolidin-1-yl)methyl)-1H-pyrrolo[2,3-b]pyridin-6-yl)-1-oxoisoindolin-2-yl) piperidine-2,6-dione] | 100 to 500 | 1 to 10 | > 80 | 10 to 100 | 20 to 40
CCn1nc(N)c2nc(-c3ccc4c(c3)CN(C3CCC(=O)NC3=O)C4=O)cc(CN3CCCC3)c21 (centres unmarked) [Example 178, 3-(5-(3-amino-1-ethyl-7-(pyrrolidin-1-ylmethyl)-1H-pyrazolo[4,3-b]pyridin-5-yl)-1-oxoisoindolin-2-yl) piperidine-2,6-dione] | 500 to 1000 | 1 to 10 | 60 to 80 | 100 to 1000 | 20 to 40
O=C1CCC(N2Cc3cc(-c4cc(CN5CCCC5)c5cn(C6CCC6)nc5n4)ccc3C2=O)C(=O)N1 (centres unmarked) [Example 316, 3-(5-(2-cyclobutyl-4-(pyrrolidin-1-ylmethyl)-2H-pyrazolo[3,4-b]pyridin-6-yl)-1-oxoisoindolin-2-yl) piperidine-2,6-dione] | 100 to 500 | 1 to 10 | > 80 | 10 to 100 | 20 to 40
O=C1CCC(N2Cc3cc(-c4ncn5ccc(CN6CCCC6)cc45)ccc3C2=O)C(=O)N1 (centres unmarked) [Example 312, 3-(1-oxo-5-(7-(pyrrolidin-1-ylmethyl)imidazo[1,5-a]pyridin-1-yl)isoindolin-2-yl) piperidine-2,6-dione] | 1000 to 5000 | 10 to 100 | 20 to 40 | > 10000 | < 20
